Test results: publication PMC9997069 (Molecular Pharmaceutics, 2023)
“And” between values parts separate entries of the source, which are not always exact repeats. Identical values can stand only once. “Also recorded” adds a separate entry of the source. Like-named read-outs stand apart in the source and are kept apart here.

What was measured:
[1] = cited from earlier work
HSA [2] = biological target: T1, HSA (Homo sapiens, UniProt P02768); settings: cited from earlier work
T1 construct: purchased Sigma-Aldrich

BSA = settings: cited from earlier work
[3] = biological target: T2, human serum albumin (HSA) (Homo sapiens, UniProt P02768); test: Binding to HSA by Trp214 fluorescence quenching titration; settings: for n^c ± 2σ number of binding sites / Kd / n^u ± 2σ: HSA; for n^c ± 2σ number of binding sites: inner filter corrected
T2 construct: purchased Sigma-Aldrich
Protocol: The emission fluorescence intensity was collected at 320 nm to avoid the fluorescence emission of the drugs. […] The excitation and emission slits were fixed at 1 and 5 nm, respectively. The step and dwell times were 1 nm and 0.1 s, respectively.
Enthalpy (ΔH) and entropy (ΔS) changes were obtained from the van′t Hoff equation [drawing 6] 6 and free energy (ΔG) changes were calculated from [drawing 7] 7 The van’t Hoff plots are shown in Figure 9, and the corresponding thermodynamic parameters are collected in Table 2. […] Proton-releasing processes in protein–ligand interactions generally result in a positive enthalpy.[64]

[4] = Protonation equilibria by UV-vis pH titration with DFT assignment; format: physicochemical; settings: for pKa: aqueous solution
HSA [5] = biological target: T1, HSA; test: Competitive binding experiments with warfarin (site 1) and ibuprofen (site 2)
Protocol: The HSA binding experiments were performed at 310 K using [HSA]:[warfarin] and [HSA]:[ibuprofen] ratios of 1. […] Synchronous fluorescence spectroscopy experiments were performed to analyze the changes in the microenvironment polarity around fluorescent residues of HSA. When the value of the intervals (Δλ) between the excitation and emission wavelengths is set at 15 nm, synchronous fluorescence spectra offer characteristic information on tyrosine residues.[61]−[63]

cancer cell lines = test system: cancer cell lines; design: method as in PMID 19690138; settings: tested cancer cell lines; cited from earlier work
[6] = test system: panel of 48 other kinases; design: method as in PMID 21459796, PMID 21809214, PMID 19690138; settings: cited from earlier work
PLK2 and PLK3 = test system: PLK2 and PLK3; design: method as in PMID 21459796, PMID 21809214, PMID 19690138; settings: cited from earlier work
xenograft mouse models = test system: xenograft mouse models; design: method as in PMID 26478211; settings: cited from earlier work
[7] = test system: multiple leukemia cell lines; design: method as in PMID 26478211; settings: cited from earlier work
[8] = noncompartmental analysis, 1 hour infusion, 25 to 200 mg on day 1 and day 8 of a 21 day course
[9] = HSA/drug complex, van't Hoff plot 298-310 K
[10] = equilibrium between spectroscopic species 1 (charge 0/+1) and 2 (charge +2)

T1 sequence (P02768 25-609): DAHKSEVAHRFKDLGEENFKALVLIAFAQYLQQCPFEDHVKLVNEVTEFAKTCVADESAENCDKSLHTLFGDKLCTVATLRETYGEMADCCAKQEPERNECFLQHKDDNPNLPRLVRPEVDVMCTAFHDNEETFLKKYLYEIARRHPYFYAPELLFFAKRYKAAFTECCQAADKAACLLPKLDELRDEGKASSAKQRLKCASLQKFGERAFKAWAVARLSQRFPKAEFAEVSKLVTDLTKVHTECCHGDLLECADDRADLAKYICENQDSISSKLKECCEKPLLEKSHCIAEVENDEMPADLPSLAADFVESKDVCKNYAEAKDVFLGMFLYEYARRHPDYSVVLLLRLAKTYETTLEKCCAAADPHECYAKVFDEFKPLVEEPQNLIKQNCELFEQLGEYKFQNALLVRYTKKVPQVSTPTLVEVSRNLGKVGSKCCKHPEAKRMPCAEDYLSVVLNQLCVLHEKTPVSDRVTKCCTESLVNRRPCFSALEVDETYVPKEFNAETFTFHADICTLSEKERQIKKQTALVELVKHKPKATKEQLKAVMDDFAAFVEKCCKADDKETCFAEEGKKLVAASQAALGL
T2 sequence (P02768 25-609): as above

CC[C@@H]1C(=O)N(C)c2cnc(Nc3ccc(C(=O)NC4CCN(C)CC4)cc3OC)nc2N1C1CCCC1 [BI-2536]
terminal half-life (up to) ([1]; 1 hour intravenous infusion, 50, 60 and 70 mg on days 1 and 3 of a 21 day course): 20 to 30 h | volume of distribution [1]: 751 to 2200 L | half-life [1, 8]: around 25 hours | half-life, max [1, 8]: 55.1 h | half-life, min [1, 8]: 18.6 h | terminal half-life ([1]; single intravenous infusion, 200 mg over 1 h): 15.4 h | ΔG^0 (HSA [2]; HSA/drug complex, 298 K): –33.6 kJ mol^–1 | ΔG^0 (HSA [2]; HSA/drug complex, 303 K): –36.0 kJ mol^–1 | ΔG^0 (HSA [2]; HSA/drug complex, 310 K): –39.2 kJ mol^–1 | ΔH^0 (HSA [2]; HSA/drug complex): 103.8 kJ mol^–1 | ΔS^0 (HSA [2]; HSA/drug complex): 461.3 J K^–1 mol^–1 | Ka^c binding constant to HSA (HSA [2]): 3.78 × 10^6 M^–1 | Ka^u binding constant to HSA (HSA [2]): 11.4 × 10^7 M^–1 | n^c ± 2σ number of binding sites (HSA [2]): 1.30 ± 0.09 and 1.22 ± 0.16 and 1.35 ± 0.16

C[C@@H](Oc1cc(-c2cnn(C3CCNCC3)c2)cnc1N)c1c(Cl)ccc(F)c1Cl [Crizotinib]
Ka^c binding constant (BSA; 309 K, listed as crizotinib): 3.4 × 10^4 M^–1 | Ka^c binding constant (BSA; 309 K): 3.43 × 10^4 M^–1

C#Cc1cccc(Nc2ncnc3cc(OCCOC)c(OCCOC)cc23)c1 [Erlotinib]
Ka^c binding constant (BSA; 307 K): 3.44 × 10^2 M^–1

C[C@@H](Oc1cc(-n2cnc3ccc(CN4CCN(C)CC4)cc32)sc1C(N)=O)c1ccccc1C(F)(F)F [GSK461364]
binding constant to HSA, times lower than for RO3280 ([3]; 310 K): 25 times | n^c ± 2σ number of binding sites ([3]; 298 K): 1.19 ± 0.06 | Kd ([3]; 298 K, pH 7.4, inner filter corrected, read-out: Ka^c binding constant (converted)): 4.81 µM | n^u ± 2σ ([3]; 298 K, without inner filter corrections): 1.29 ± 0.10 | Kd ([3]; 298 K, without inner filter corrections, read-out: log Ka^u ± 2σ (converted)): 0.871 µM | n^c ± 2σ number of binding sites ([3]; 303 K): 1.15 ± 0.03 | Kd ([3]; 303 K, pH 7.4, inner filter corrected, read-out: Ka^c binding constant (converted)): 8.26 µM | n^u ± 2σ ([3]; 303 K, without inner filter corrections): 1.28 ± 0.05 | Kd ([3]; 303 K, without inner filter corrections, read-out: log Ka^u ± 2σ (converted)): 1.07 µM | n^c ± 2σ number of binding sites ([3]; 310 K): 1.11 ± 0.05 | Kd ([3]; 310 K, pH 7.4, inner filter corrected, read-out: Ka^c binding constant (converted)): 11.4 µM | n^u ± 2σ ([3]; 310 K, without inner filter corrections): 1.23 ± 0.06 | Kd ([3]; 310 K, without inner filter corrections, read-out: Ka^u binding constant to HSA (converted)): 1.79 µM | ΔG^0 ([3]; HSA/drug complex, 298 K): –30.22 kJ mol^–1 | ΔG^0 ([3]; HSA/drug complex, 303 K): –29.80 kJ mol^–1 | ΔG^0 ([3]; HSA/drug complex, 310 K): –29.20 kJ mol^–1 | ΔH^0 [3, 9]: –55.61 kJ mol^–1 | ΔS^0 [3, 9]: –85.20 J K^–1 mol^–1 | pKa [4, 10]: 1.4 | Kd (HSA [5]; 310 K, [HSA]:[warfarin] ratio of 1, 5 μM, read-out: binding constant to HSA in the presence of warfarin (converted)): 1040 µM | preferential binding site into HSA (HSA [5]; competitive experiments with warfarin and ibuprofen): site 1; also recorded: site I | cell growth inhibition (cancer cell lines): causes cell growth inhibition in a high percentage of tested cancer cell lines | selectivity for PLK1 than for a panel of 48 other kinases [6]: 1000 fold | selectivity for PLK1 than for PLK2 and PLK3 (PLK2 and PLK3): at least 390 fold

C=CC(=O)N1CCC[C@@H](n2nc(-c3ccc(Oc4ccccc4)cc3)c3c(N)ncnc32)C1 [Ibrutinib]
Ka^c binding constant (HSA [2]; HSA, 310 K): 7.2 × 10^3 M^–1 | ΔG^0 (HSA [2]; HSA, 310 K): –25.09 kJ mol^–1 | ΔH^0 (HSA [2]; HSA): –16.91 kJ mol^–1 | ΔS^0 (HSA [2]; HSA): 26.44 J K^–1 mol^–1

Cc1ccc(F)c(NC(=O)Nc2ccc(-c3cccc4[nH]nc(N)c34)cc2)c1 [Linifanib]
Ka^c binding constant (BSA; 308 K): 4.3 × 10^3 M^–1

Cc1cc(Nc2cc(N3CCN(C)CC3)nc(Sc3ccc(NC(=O)C4CC4)cc3)n2)[nH]n1 [MK-0457]
Ka^c binding constant (HSA [2]; HSA, 310 K): 1.05 × 10^4 M^–1 | ΔG^0 (HSA [2]; HSA, 310 K): –23.02 kJ mol^–1 | ΔH^0 (HSA [2]; HSA): –130.63 kJ mol^–1 | ΔS^0 (HSA [2]; HSA): –343.89 J K^–1 mol^–1

Cc1cc(C(=O)Nc2nc3cccc(Cl)c3n2[C@@H]2CCCCN(C(=O)/C=C/CN(C)C)C2)ccn1 [Nazartinib (EGF816), Nazartinib]
Ka^c binding constant (HSA [2]; HSA, 310 K): 2.67 × 10^4 M^–1 | ΔG^0 (HSA [2]; HSA, 310 K): –26.27 kJ mol^–1 | ΔH^0 (HSA [2]; HSA): –3.22 kJ mol^–1 | ΔS^0 (HSA [2]; HSA): 74.36 J K^–1 mol^–1

CCOc1cc2ncc(C#N)c(Nc3ccc(OCc4ccccn4)c(Cl)c3)c2cc1NC(=O)/C=C/CN(C)C [Neratinib]
Ka^c binding constant (HSA [2]; HSA, 310 K): 2.25 × 10^5 M^–1

COc1cc(C(=O)NC2CCN(C)CC2)ccc1Nc1ncc2c(n1)N(C1CCCC1)CC(F)(F)C(=O)N2C [RO3280]
antitumor activity (xenograft mouse models): significant level of antitumor activity | pKa [4, 10]: 12.6 | pKa ([4]; equilibrium to species with charge +3, acidic pH): 3.8 | charge state at the physiological pH ([4]; pH 7.4, aqueous solution): +2 | in vitro cellular potency [7]: high in vitro cellular potency

CNC(=O)c1cc(Oc2ccc(NC(=O)Nc3ccc(Cl)c(C(F)(F)F)c3)cc2)ccn1 [Sorafenib]
Ka^c binding constant (HSA [2]; HSA, 305 K): 2.64 × 10^4 M^–1 | ΔG^0 (HSA [2]; HSA, 305 K): –25.8 kJ mol^–1 | ΔH^0 (HSA [2]; HSA): –28.2 kJ mol^–1 | ΔS^0 (HSA [2]; HSA): –7.87 J K^–1 mol^–1

COc1cc2c(Nc3ccc(Br)cc3F)ncnc2cc1OCC1CCN(C)CC1 [Vandetanib]
Ka^c binding constant (HSA [2]; HSA, 303 K): 7.63 × 10^3 M^–1 | ΔG^0 (HSA [2]; HSA, 303 K): –22.56 kJ mol^–1 | ΔH^0 (HSA [2]; HSA): –6.57 kJ mol^–1 | ΔS^0 (HSA [2]; HSA): 52.76 J K^–1 mol^–1

C[C@H](Cn1cnc2c(N)ncnc21)OCP(=O)(O)O [tenofovir]
binding constant to HSA (HSA [2]; 310 K): 5.7 × 10^4 M^–1
